The target in assay [1] is T1, pyridoxal kinase (PdxK) (Homo sapiens, UniProt O00764).
T1 sequence (O00764 1-312): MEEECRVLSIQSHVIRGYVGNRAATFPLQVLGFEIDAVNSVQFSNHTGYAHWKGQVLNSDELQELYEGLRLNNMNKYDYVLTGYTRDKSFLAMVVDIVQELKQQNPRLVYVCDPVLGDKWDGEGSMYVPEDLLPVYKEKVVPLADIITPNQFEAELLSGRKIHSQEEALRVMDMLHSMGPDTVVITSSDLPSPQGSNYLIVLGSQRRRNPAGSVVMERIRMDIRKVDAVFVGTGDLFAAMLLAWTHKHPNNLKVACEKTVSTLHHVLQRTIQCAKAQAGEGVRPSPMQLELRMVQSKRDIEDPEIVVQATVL
The assay is described as follows: steady-state enzyme kinetics ([…] nm), Lineweaver-Burk and secondary plots. The class given is biochemical. Also on record: wild-type human recombinant.

Assay [2] addresses T1, pyridoxal kinase (PdxK). In words: enzyme activity assay. The assay is classed as biochemical. The arrangement: human recombinant.

For three compounds, Ki and enzyme activity assay results are on record in paper PMC4515825, “Molecular mechanisms of the non-coenzyme action of thiamin in brain: biochemical, structural and pathway analysis” (Scientific Reports, 2015).

What is called pKi is the Ki on a negative log10 scale, so that one unit is a factor of ten.

The structures appear in SMILES notation. pKi: −log10 of the molar value.

Take `Cc1ncc(C[n+]2csc(CCOP(=O)([O-])OP(=O)(O)O)c2C)c(N)n1` [thiamin diphosphate]: the pKi in assay [1] is 2.48.

Consider `CCCCCCCCCCOC(=O)C[n+]1csc(CCO)c1C` [DMHT, 3-decyloxycarbonylmethyl-4-methyl-5-(2-hydroxyethyl) thiazolium], for which the enzyme activity assay entry in assay [2] is “Figure 2B shows that both compounds affected PdxK activity, supporting the direct interaction of the enzyme”.

Take `Cc1ncc(C[n+]2csc(CCO)c2C)c(N)n1` [thiamin]: in assay [1], the pKi is 2.66.
